In PMC6149822, “A New Series of Pyrrole-Based Chalcones: Synthesis and Evaluation of Antimicrobial Activity, Cytotoxicity, and Genotoxicity” (Molecules : A Journal of Synthetic Chemistry and Natural …, 2017):
In brackets after ≈: the same amount, converted by molar mass. Marks after values point to notes of the source that are not given here.

How the values were obtained:
C. krusei (ATCC 6258) = assay: Microdilution susceptibility assay (MIC); format: cell-based, Candida krusei; conditions: Pichia kudriavzevii, ATCC6258
Experimental: (§1) Compounds 1–10 were screened for their antimicrobial activity against gram-negative bacteria, gram-positive bacteria, and yeasts, listed in Table 1. Bacteria were grown in Mueller-Hinton Broth and yeasts were grown in Sabouraud Dextrose Broth (SDB) during experiments. Overnight cultures were prepared routinely by subculturing of stock culture onto Mueller-Hinton Agar for bacteria and Sabouraud Dextrose Agar for yeasts.
(§2) Microdilution susceptibility assay was used for the determination of antibacterial and anticandidal efficacy of compounds 1–10. Chloramphenicol and ketoconazole were used as positive controls for bacteria and yeasts, respectively. All experiments were designed according to the Clinical Laboratory Standards Institute (CLSI). All chemicals were dissolved in dimethyl sulfoxide (DMSO) to obtain stock solution (10 mg/mL). Two-fold serial dilutions (800, 400, 200...0.78 µg/mL) of the compounds were prepared from stock solutions with dH2O. 100 µL of each solution was transferred to 96-well microtiter plates and 100 µL of 10^6 CFU/mL of bacteria and 2 × 10^3 of CFU/mL yeast were added to related wells. As negative controls, wells including microorganisms without agents and wells including agents without microorganisms were used. The plates were kept at 35 °C for 18–20 h and the growth was determined with resazurin (20 mg/mL). Assays were carried out in triplicate.

C. krusei = assay: ATP luminescence microbial cell viability assay; format: cell-based, Candida krusei; conditions: 24 h treatment, result in words
Experimental: A model from BioTek Instruments Inc. combined with a BacTiter-Glo^TM Microbial Cell Viability assay (Promega Corp., Madison, WI, USA) was used to provide a sensitive and rapid method for determining the number of viable microbial cells in culture based on quantitation of the ATP present. […] After incubation, cultures were added into the wells (final concentration of bacteria was 5 × 10^5 CFU/mL and 2.5 × 10^6 CFU/mL for yeasts). After adding the BacTiter reagent, incubation time for bacteria and yeasts was 5 min and 15 min, respectively.
The assay generates a “glow-type” luminescent signal, produced by the luciferase reaction. Briefly, after chemicals and strains were incubated for 24 h, 100 µL of the culture was taken from each well and mixed with the same volume of the BacTiter-Glo™ reagent in a white, opaque-walled microtiter plate. Control wells containing medium without cells were prepared to obtain a value for background luminescence. Cells without compound were used as an ATP-positive control. The microplates were further incubated under agitation for 7 min. Bioluminescence was recorded in a multi-detection microplate reader (BioTek Synergy 2 Multi-Mode Microplate Reader, BioTek Instruments, Winooski, VT, USA). […] Experiments were performed in triplicate and each sample was measured in four replicates.

[1] = system: C. parapsilosis (ATCC 22019); assay: Microdilution susceptibility assay (MIC); format: cell-based, Candida parapsilosis; conditions: Lodderomyces parapsilosis, ATCC22019
Experimental: as §1, §2

[2] = system: Salmonella typhimurium TA98; assay: Ames MPF mutagenicity assay; format: cell-based; conditions: for Revertants fold increase (over baseline) TA 98 S9+: with S9; for Revertants fold increase (over baseline) TA 98 S9−: without S9; for Genotoxicity classification (Ames MPF): TA98, with/without metabolic activation, 0.16-5 mg/mL
Experimental: (§3) An Ames MPF 98/100 mutagenicity assay sample kit (Xenometrix AG, Allschwil, Switzerland) was used to evaluate the genotoxicity of compounds 7 and 9 as described previously. Salmonella typhimurium TA98 (frameshift mutations) and TA100 (base-pair substitutions) strains were used and the compounds were tested in concentrations between […] and 5000 μg/mL (5.0, 2.5, 1.25, 0.625, 0.3125, 0.156 mg/mL in DMSO) in accordance with the guidelines. Mutagenity was tested with/without metabolic activation with an Aroclor™-1254 induced male Sprague–Dawley rat liver microsomal enzyme (S9) mix (Xenometrix AG, Allschwil, Switzerland). 2-Nitrofluorene (2.0 μg/mL) and 4-nitroquinoline N-oxide (0.1 μg/mL) were used without S9, and 1.0 μg/mL and 2.5 μg/mL of 2-aminoanthracene solutions were used with S9 against TA98 and TA100 as positive controls, respectively. At the end of each experiment, yellow wells were counted as positive and compared with the negative control. Fold induction over the negative control and fold induction over the baseline were calculated as described: Fold induction over the negative control is the ratio of the mean number of positive wells for the dose concentration divided by the mean number of positive wells for the zero-dose (negative) control. Fold induction over the baseline is the ratio of the mean number of positive wells for the dose concentration divided by the zero-dose baseline. The zero-dose baseline is obtained by adding one standard deviation to the mean number of positive wells of the zero-dose control. If the baseline is less than one, the value is set to one for calculation.
(§4) Genotoxicity was determined according to the previous criteria. For a baseline value of ≤3, significant increases between 2- and 3-fold of the baseline were classified as weak mutagens, and increases ≥3-fold of the baseline were classified as mutagens. For a baseline value of >3, significant increases between 1.5- and 2.5-fold of the baseline were classified as weak mutagens, and increases ≥2.5-fold of the baseline were classified as mutagens. At least two adjacent doses with significant increases, or a significant increase at the highest dose level, should be observed for a mutagenic compound. All of the doses were compared according to Student’s t-test at p < 0.05 for statistical significance.

[3] = system: Salmonella typhimurium TA100; assay: Ames MPF mutagenicity assay; format: cell-based; conditions: for Revertants fold increase (over baseline) TA 100 S9+: with S9; for Revertants fold increase (over baseline) TA 100 S9−: without S9; for Genotoxicity classification (Ames MPF): TA100, with/without metabolic activation, 0.16-5 mg/mL
Experimental: as §3, §4

E. coli (ATCC 25922) = assay: Microdilution susceptibility assay (MIC); format: cell-based; conditions: Escherichia coli, ATCC25922
Experimental: as §1, §2

S. aureus (ATCC 25923) = assay: Microdilution susceptibility assay (MIC); format: cell-based; conditions: Staphylococcus aureus, ATCC25923
Experimental: as §1, §2

E. faecalis (ATCC 51299) = assay: Microdilution susceptibility assay (MIC); format: cell-based; conditions: Enterococcus faecalis, ATCC51299
Experimental: as §1, §2

C. albicans (ATCC 90028) = assay: Microdilution susceptibility assay (MIC); format: cell-based; conditions: Candida albicans, ATCC90028
Experimental: as §1, §2

E. faecalis (ATCC 29212) = assay: Microdilution susceptibility assay (MIC); format: cell-based; conditions: Enterococcus faecalis, ATCC29212
Experimental: as §1, §2

[4] = system: K. pneumoniae (ATCC 700603); assay: Microdilution susceptibility assay (MIC); format: cell-based; conditions: Klebsiella pneumoniae, ATCC700603
Experimental: as §1, §2

SMILES	MIC (C. krusei (ATCC 6258)) [µg/mL]	antifungal activity in ATP bioluminescence assay (C. krusei)	MIC [1] [µg/mL]	Revertants fold increase (over baseline) TA 98 S9+ ([2]; 0.16 mg/mL)	Revertants fold increase (over baseline) TA 98 S9− ([2]; 0.16 mg/mL)	Revertants fold increase (over baseline) TA 98 S9+ ([2]; 0.31 mg/mL)	Revertants fold increase (over baseline) TA 98 S9− ([2]; 0.31 mg/mL)	Revertants fold increase (over baseline) TA 98 S9+ ([2]; 0.63 mg/mL)	Revertants fold increase (over baseline) TA 98 S9− ([2]; 0.63 mg/mL)	Revertants fold increase (over baseline) TA 98 S9+ ([2]; 1.25 mg/mL)	Revertants fold increase (over baseline) TA 98 S9− ([2]; 1.25 mg/mL)	Revertants fold increase (over baseline) TA 98 S9+ ([2]; 2.5 mg/mL)	Revertants fold increase (over baseline) TA 98 S9− ([2]; 2.5 mg/mL)	Revertants fold increase (over baseline) TA 98 S9+ ([2]; 5 mg/mL)	Genotoxicity classification (Ames MPF) [2]	Revertants fold increase (over baseline) TA 100 S9+ ([3]; 0.16 mg/mL)	Revertants fold increase (over baseline) TA 100 S9− ([3]; 0.16 mg/mL)	Revertants fold increase (over baseline) TA 100 S9+ ([3]; 0.31 mg/mL)	Revertants fold increase (over baseline) TA 100 S9− ([3]; 0.31 mg/mL)	Revertants fold increase (over baseline) TA 100 S9+ ([3]; 0.63 mg/mL)	also measured
Cn1cccc1C(=O)C=Cc1ccc(-c2ccc(Cl)cc2)o1 [Compound 7, 1-(1-Methyl-1H-pyrrol-2-yl)-3-(5-(4-chlorophenyl)furan-2-yl)prop-2-en-1-one]	25 (≈ 80.2 µM)	more statistically significant antifungal activity against C. krusei than ketoconazole	100 (≈ 321 µM)	0.68	0.66	0.76	0.33	1.01	0.44	0.68	0.66	0.51	0.33	0.25	non-genotoxic	0.56	0.44	0.68	0.56	0.79	Revertants fold increase (over baseline) TA 100 S9− ([3]; 0.63 mg/mL): 0.67; Revertants fold increase (over baseline) TA 100 S9+ ([3]; 1.25 mg/mL): 0.62; Revertants fold increase (over baseline) TA 100 S9− ([3]; 1.25 mg/mL): 0.33; Revertants fold increase (over baseline) TA 100 S9+ ([3]; 2.5 mg/mL): 0.90; Revertants fold increase (over baseline) TA 100 S9− ([3]; 2.5 mg/mL): 0.33; Revertants fold increase (over baseline) TA 100 S9+ ([3]; 5 mg/mL): 0.79; Revertants fold increase (over baseline) TA 100 S9− ([3]; 5 mg/mL): 0.44; Genotoxicity classification (Ames MPF) [3]: non-genotoxic; MIC (E. coli (ATCC 25922)): 400 µg/mL (≈ 1280 µM); MIC (S. aureus (ATCC 25923)): 400 µg/mL (≈ 1280 µM); MIC (E. faecalis (ATCC 51299)): 200 µg/mL (≈ 642 µM); MIC (C. albicans (ATCC 90028)): 50 µg/mL (≈ 160 µM); MIC (E. faecalis (ATCC 29212)): 100 µg/mL (≈ 321 µM); MIC [4]: 100 µg/mL (≈ 321 µM)
Cn1cccc1C(=O)C=Cc1ccc(-c2cc(Cl)ccc2Cl)o1 [Compound 9, 1-(1-Methyl-1H-pyrrol-2-yl)-3-(5-(2,5-dichlorophenyl)furan-2-yl)prop-2-en-1-one]	25 (≈ 72.2 µM)	more statistically significant antifungal activity against C. krusei than ketoconazole	50 (≈ 144 µM)	0.51	0.89	0.79	0.83	0.34 *	0.89	0.39	1.07	0.79	0.24 *	0.51	non-genotoxic	0.51	0.48	0.73	0.54	0.68	Revertants fold increase (over baseline) TA 98 S9− ([2]; 5 mg/mL): 0.54; Revertants fold increase (over baseline) TA 100 S9− ([3]; 0.63 mg/mL): 0.54; Revertants fold increase (over baseline) TA 100 S9+ ([3]; 1.25 mg/mL): 0.68; Revertants fold increase (over baseline) TA 100 S9− ([3]; 1.25 mg/mL): 0.54; Revertants fold increase (over baseline) TA 100 S9+ ([3]; 2.5 mg/mL): 0.79; Revertants fold increase (over baseline) TA 100 S9− ([3]; 2.5 mg/mL): 0.30 *; Revertants fold increase (over baseline) TA 100 S9+ ([3]; 5 mg/mL): 0.90; Revertants fold increase (over baseline) TA 100 S9− ([3]; 5 mg/mL): 0.12 *; Genotoxicity classification (Ames MPF) [3]: non-genotoxic; MIC (E. coli (ATCC 25922)): 100 µg/mL (≈ 289 µM); MIC (S. aureus (ATCC 25923)): 200 µg/mL (≈ 578 µM); MIC (E. faecalis (ATCC 51299)): 400 µg/mL (≈ 1160 µM); MIC (C. albicans (ATCC 90028)): 200 µg/mL (≈ 578 µM); MIC (E. faecalis (ATCC 29212)): 200 µg/mL (≈ 578 µM); MIC [4]: 200 µg/mL (≈ 578 µM)
